Experimental data reported in patent publication US20220241416A1, “METHODS FOR THE IDENTIFICATION OF SARM1 NADASE ACTIVITY INHIBITORS AND USES THEREOF” (Bar Ilan University, priority 2021, published 2022).
Entries after “also recorded” stand apart in the source; their conditions may differ.

Assays:
hSARM1 [1] = target: T1, hSARM1 (Homo sapiens, UniProt Q6SZW1); experiment: In vitro hSARM1 NADase activity, Resasurin assay; format: biochemical
T1 construct: hSARM1w.t; (26ERL . . . GPT724) that was not mutated in E642, was also expressed and isolated; 6xHis (N); TEV cleavage site (N); made in house; host or cells: HEK293F suspension cells
T1 sequence (Q6SZW1 with tags, fused parts or gaps): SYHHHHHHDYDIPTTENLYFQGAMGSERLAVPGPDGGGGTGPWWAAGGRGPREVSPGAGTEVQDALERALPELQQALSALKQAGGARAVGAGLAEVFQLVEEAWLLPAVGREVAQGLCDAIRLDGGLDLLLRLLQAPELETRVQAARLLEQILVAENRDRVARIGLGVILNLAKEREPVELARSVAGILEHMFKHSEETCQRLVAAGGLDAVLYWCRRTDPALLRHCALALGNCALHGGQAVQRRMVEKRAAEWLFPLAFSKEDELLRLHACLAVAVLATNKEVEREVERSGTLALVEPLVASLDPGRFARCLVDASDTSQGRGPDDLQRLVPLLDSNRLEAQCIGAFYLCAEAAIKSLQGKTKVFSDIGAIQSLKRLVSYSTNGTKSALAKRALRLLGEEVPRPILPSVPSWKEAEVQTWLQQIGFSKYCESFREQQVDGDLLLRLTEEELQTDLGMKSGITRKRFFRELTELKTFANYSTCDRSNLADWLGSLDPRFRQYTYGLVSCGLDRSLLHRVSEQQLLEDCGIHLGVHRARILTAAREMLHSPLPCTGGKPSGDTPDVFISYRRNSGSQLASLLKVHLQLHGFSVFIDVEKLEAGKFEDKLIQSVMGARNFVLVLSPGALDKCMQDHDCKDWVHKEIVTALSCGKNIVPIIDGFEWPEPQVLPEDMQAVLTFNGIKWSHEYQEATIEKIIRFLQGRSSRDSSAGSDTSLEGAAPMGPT
Experimental: For quantitation of hSARM1 NADase activity and the inhibitory effect of selected compounds (FIG. 6F; FIG. 7A-7B), purified hSARM1w.t. and hSARM1E642Q proteins were first diluted to 400 nM concentration in 25 mM HEPES pH 7.5, 150 mM NaCl, and then mixed in 25° C. with 1 uM of NAD+(in the same buffer) with a 1:1 v/v ratio. All inhibitors were diluted with the same buffer, and the pH values were measured and if necessary titrated to 7.5. Inhibitors were pre-incubated for 20 min with hSARM1 in 25° C. before mixing with NAD+. At designated time points, reactions were quenched by placing the reaction tubes in 95° C. for 2 min. Measurement of NAD+ concentrations was made by a modified enzymatic coupled cycling assay (K. S. Kanamori et al., NAD. Bio Protoc 8, (2018)). The reaction mix, which includes 100 mM Phosphate buffer pH=8, 0.78% ethanol, 4 uM FMN (Riboflavin 5′-monophosphate sodium salt hydrate), 27.2 U/ml Alcohol dehydrogenase (SIGMA), 1.8 U/ml Diaphorase (SIGMA) and freshly dissolved (in DDW) 8 uM Resasurin (SIGMA), was added to each sample at 1:1 (v/v) ratio and then transferred to 384-well black plate (Corning). Fluorescent data was measured using a SynergyHI (BioTek) plate reader at 554-nm excitation and 593-nm emission wavelengths. Standard curve equation for calculation of NAD+ concentration was created for each assay from constant NAD+ concentrations.

hSARM1 [2] = target: T1, hSARM1; experiment: HPLC analysis of time dependent NAD+ consumption by hSARM1; format: biochemical; details: 2 mM NAD+ versus 50 μM; porcine brain NADase control not inhibited
Experimental: Purified hSARM1w.t. was first diluted to 800 nM in 25 mM HEPES pH 7.5, 150 mM NaCl, and then mixed in 37° C. with different concentrations of NAD+(in the same buffer) in a 1:1 v/v ratio and incubated for 0, 5 and 30 min. 1:100 (v/v). BSA (NEB Inc. 20 mg/ml) was included, and reactions were stopped by heating at 95° C. for 2 minutes. Where specified, NMN (Sigma-Aldrich-N3501) was added in different concentrations. For control, NAD+ consumption was compared to a commercially available porcine brain NADase 0.025 units/ml (Sigma-Aldrich-N9879).
HPLC measurements were performed using a Merck Hitachi Elite LaChrom HPLC system equipped with an autosampler, UV detector and quaternary pump. HPLC traces were monitored at 260 nm and integrated using EZChrom Elite software. 10 μL of each sample were injected onto a Waters Spherisorb ODS1 C18 RP HPLC Column (5 μm particle size, 4.6 mm×150 mm ID). HPLC solvents are: A: 100% methanol; B: 120 mM sodium phosphate pH 6.0; C double-distilled water (DDW). The column was pre-equilibrated with B:C mixture ratio of 80:20. Chromatography was performed at room temperature with a flow rate of 1.5 ml/min. Each analysis cycle was 12 min long as follows (A:B:C, v/v): fixed 0:80:20 0-4 min; gradient to 20:80:0 4-6 min; fixed 20:80:0 from 6-9 min. gradient to 0:80:20 from 9-10 min; fixed 0:80:20 from 10-12 min. The NAD+ hydrolysis product ADPR was eluted at the isocratic stage of the chromatography while NAD+ elutes in the methanol gradient stage.

Nc1ncnc2c1ncn2[C@@H]1O[C@H](COP(=O)(O)OP(=O)(O)OP(=O)(O)O)[C@@H](O)[C@H]1O [ATP]
inhibition of hSARM1 NADase activity (hSARM1 [1]; analyzed as for glycerol, FIG. 7A): inhibits the NADase activity of hSARM1 in a dose-dependent manner

NC(=O)c1ccc[n+]([C@@H]2O[C@H](COP(=O)([O-])OP(=O)(O)OC[C@H]3O[C@@H](n4cnc5c(N)ncnc54)[C@H](O)[C@@H]3O)[C@@H](O)[C@H]2O)c1 [NAD+, Nicotinamide adenine dinucleotide]
substrate inhibition of hSARM1 NAD+ hydrolysis (hSARM1 [2]): clearly inhibited; also recorded: tightly inhibited

OCC(O)CO [glycerol]
inhibition of hSARM1 NADase activity (hSARM1 [1]; 15% glycerol, measured 20 minutes after adding 0.5 μM NAD+): 72%
